Measurements from patent publication US9181375B2, “Fluorescent potassium ion sensors” (ARIZONA BOARD OF REGENTS, A BODY CORPORATE OF THE STATE OF …, priority 2011, dated 2015).

Legend:
[1] = Fluorescence response of sensors to other cations and pH in buffer (selectivity)
Experimental: (§1) To determine sensor responses, 50 μL of 2(a) (Example 10) was dissolved in DMSO resulting in a concentration of 200 μM which was then added into 2 mL of HEPES (10 mM, pH 7.2) buffer. […] Different metal ion concentrations were added into the solution for studying 2(a)'s responses. Although the reaction of the compound and the metal ion was rapid (usually within seconds), the spectra was measured after 2 minutes to ensure stability. 2(a)/metal ion complexes were excited at 561 nm and emissions were collected from 600 to 750 nm.
2(a) was also tested against physiological concentration levels of the following metal ions: K^+, Na^+, Ca^2+, Mg^2+, Fe^3+, Zn^2+, Mn^2+, and Cu^2+. […] Furthermore, this trend was also present when the concentrations of Na^+, Ca^2+, and Mg^2+ were increased to 140 mM (FIG. 9).
Na^+ is usually an interference ion to K^+ for the typical K^+ probes including PBFI, CD18, C18, and MCC.

U87MG cells [2] = assay: Cytotoxicity by Trypan blue staining; assay type: cell-based
Experimental: Cytotoxicity of 2(a) to human glioblastoma U87MG cells was studied using Trypan blue staining. To cell culture medium (100 μL) with eukaryotic cells in a 96 well microplate with 10,000 cells/well that had internalized 2(a) for 2 hours, […] of 0.4% Trypan Blue stain was added and mixed thoroughly with the medium. After standing for 5 min at room temperature (23° C.), the cells were imaged using an optical microscope in bright field mode. Dead cells appeared blue from the Trypan Blue stain, whereas healthy cells appeared transparent as a result of the cell's resistance to stain. The cells were then counted and the ratio of dead cells to live cells was calculated. Each experiment was repeated three times.
(§2) Cytotoxicity of the sensor 1(a) to cells was studied using Trypan blue staining. After 30 minutes internalization of the sensor with cells, more than 97% cells were viable, showing the non-cytotoxicity of 1(a) to the two cell lines under our experimental conditions.

CP-A cells [3] = assay: Cytotoxicity by Trypan blue staining; assay type: cell-based; conditions: 1(a) internalized for 30 minutes
Experimental: as §2

[4] = Fluorescence titration of 1(a) with KCl in HEPES buffer, Benesi-Hildebrand plot; assay type: binding; conditions: 10 mM HEPES pH 7.4, excitation 450 nm, emission 525 nm
Experimental: FIGS. 17A and 17B show the UV-Vis and emission spectral changes upon the interaction of 1(a) with potassium chloride (KCl) in 10 mM HEPES buffer (pH 7.4). […] This fluorescence change was attributed to photo-induced electron transfer. The lone electron pairs of the amino groups in the triazacryptand ligand quench the emission of the fluorophore of the amino-naphthalimide through PET. After interaction with K^+, the lone electron pairs of the ligand were occupied due to the formation of the ligand-K^+ complex. This change restores the emission of the amino-naphthalimide fluorophore. Fluorescence intensity change at 525 nm was plotted again K^+ concentration, which is illustrated in FIG. 17C. Binding constant K could be determined by the fluorescence spectral change using the Benesi-Hildebrand equation as described above.
Curve fitting of the fluorescence intensity of 1(a) against the reciprocal of the K^+ concentration (1/[K^+]), the Benesi-Hildebrand plot, gives a linear fit (FIG. 17D).

E. coli = assay: K+ release from bacteria stimulated by lysozyme, measured with F4 film; assay type: cell-based, E. coli JM 109; conditions: lysozyme added to bacteria in 150 mM NaCl buffer pH 7.4, F4 film
Experimental: (§3) E. coli JM 109 and B. subtilis 168 were cultured overnight in LB medium (Difco®, Becton, Dickinson and Company, Sparks, Md.) by shaking at 180 rpm at 37° C. The concentration of E. coli and B. subtilis in culture was estimated by measuring the optical density at 600 nm (OD600). OD600 value of 1 indicated a concentration of 5.0×10^8 cfu/mL. After the microorganism density was determined, bacterial cells were collected by centrifuge at 2000×g for 20 minutes at room temperature. Then appropriate densities of bacteria were made using fresh buffer (150 mM NaCl, pH 7.4) to achieve the desired initial concentrations for experiments.
(§4) The F4 film (Example 16) was placed diagonally into quartz cuvettes with 2 mL of bacteria suspension at different densities. […] The potassium ion concentration was calculated from the measured fluorescence ratio (F/F0).
(§5) F4 film was used for both gram positive (i.e. B. subtilis) and negative (i.e. E. coli) bacteria and lysozyme was used as a model drug to stimulate K^+ efflux from the organisms. […] The washed organisms were resuspended in 2 mL of the potassium-free buffer in quartz cuvettes at a concentration range of 1.5×10^10 to 1.0×10^11 cfu/mL F4 was immersed into the above prepared mixtures, and then lysozyme was added into the cuvettes to stimulate the K^+ efflux, which was monitored through the time dependent fluorescence intensity changes of F4 film. […]

B. subtilis = assay: as above; assay type: cell-based, B. subtilis 168; conditions: lysozyme added to bacteria in 150 mM NaCl buffer pH 7.4, F4 film
Experimental: as §3, §4, §5

U87MG cells [5] = assay: Intracellular K+ influx monitored with 2(a), confocal fluorescence, ImageJ; assay type: cell-based, human; conditions: isoproterenol 5 μM with 20 mM KCl in medium, 40 minutes, 37° C.; 2(a) 4 μM
Experimental: 2(a) can also be used to monitor K^+ influx through stimuli. […] The influx stimulator (isoproterenol in KCl-containing PBS buffer) was added. Final concentrations of the added isoproterenol and KCl in the cell culture medium were 5 μM and 20 mM, respectively.

U87MG cells [6] = assay: Dynamic K+ influx and efflux monitored with 2(a) after nigericin; assay type: cell-based, human; conditions: nigericin 20 μM in 20 mM KCl medium
Experimental: 2(a) was further tested for in-situ observation of dynamic potassium ion influx and then efflux through the changes of fluorescence (FIG. 15) stimulated by an ionophore nigericin. Cells internalized with 4 μM of 2(a) at 37° C. for 10 minutes were washed with 20 mM KCl-containing fresh medium. Nigericin (20 μM at its final concentration) was added in 20 mM KCl-containing medium to help K^+ to across cell membrane. Enhanced fluorescence was immediately observed after the addition of nigericin, indicating potassium ion influx occurred. The potassium influx peaked after 3 minutes with an average of fluorescence increase of 370%. After 3 minutes, potassium efflux was observed by the decrease of the fluorescence. The efflux stabilized after 15 minutes, and the fluorescence intensity after the stabilization was about 25% below that of before the stimulation by nigericin. The ionophore nigericin was used to stimulate K^+ influx for yeast Saccharomyces cerevisiae. It was also reported to be a K^+ efflux stimulator for human colorectal adenocarcinoma HT-29 cells.

U87MG cells [7] = assay: Intracellular K+ efflux monitored with 1(a), microplate reader; assay type: cell-based, human; conditions: cells loaded with 2 μM 1(a); nigericin 5 μM, bumetanide 10 μM, ouabain 10 μM; 2.5 h
Experimental: (§6) U87MG and CP-A cells were seeded onto 96 well plates at 10,000 cells per well and maintained in 100 μL medium overnight. The following day, the cells were loaded with 1(a) (2 μM) for 20 min, then the excess 1(a) was removed by washing with medium. The test substances were added and the experiment was terminated after 2.5 h by washing the cells with physiological NaCl solution. A microplate reader (Molecular Device, Downingtown, Pa.) was used to read the fluorescence intensities from the intracellular 1(a). 444 nm was used to excite the sensor and the emission was measured at 538 nm. The measured fluorescence intensities were corrected with background fluorescence. Each experiment was repeated in triplicate.
(§7) The decrease of the fluorescence intensities indicates the efflux of the intracellular potassium ions from the cells.

CP-A cells [8] = assay: as above; assay type: cell-based; conditions: cells loaded with 2 μM 1(a); nigericin 5 μM, bumetanide 10 μM, ouabain 10 μM; 2.5 h
Experimental: as §6, §7

[9] = Fluorescence titration of 2(a) with KCl in HEPES buffer, Benesi-Hildebrand plot; assay type: binding; conditions: HEPES pH 7.2
Experimental: as §1
2(a) is constructed using strong electron-donating (aniline) and electron-withdrawing (TCF) groups, yielding an absorption maximum at 560 nm. The extinction coefficient (s) at 560 nm is 3.84×10^4 M^−1 cm^−1. […] Upon addition of K^+, the fluorescence intensity of 2(a) increases by ca. 4 and 50 fold at K^+ concentrations of 140 mM and 1400 mM (FIGS. 8A and 8B), respectively, resulting in corresponding η of 0.52% and 5.6%. Kd was determined by the Benesi-Hildebrand equation: F0/(F0−F)=F0/(F0−Fcomplex)+F0/(F0−Fcomplex)×Kd×1/[M] (1) where F0 is the integrated fluorescence intensity of a free sensor, F is the observed integrated fluorescence intensity, Fcomplex is the emission of the ligand-metal ion complex, and [M] is the metal ion concentration. When F0/(F0−F) is plotted against 1/[M], the binding constant is given by the ratio intercept/slope. […]

[10] = Fluorescence quantum yield against Rhodamine B standard; assay type: physicochemical
Experimental: The fluorescence quantum yields (η) of samples in solutions were recorded by using Rhodamine B in ethanol (η=0.65) excited at 540 nm and were calculated according to the following equation:
[formula] where (ηr) and (ηs) are the fluorescence quantum yields of standards and the samples, respectively. Ar and As are the absorbance of the standards and the measured samples at the excitation wavelength, respectively. Ir and Is are the integrated emission intensities of standards and the samples, respectively. nr and ns are the refractive indices of the corresponding solvents present in the solutions, respectively. The experimental error was approximately 10%.

C=CCN1C(=O)c2cccc3c(NCCc4ccc(N5CCOc6cc(C)ccc6N6CCOCCOCCN(CCOCCOCC6)c6ccc(C)cc6OCC5)c(OCCOC)c4)ccc(c23)C1=O [1(a)]
selectivity against biologically relevant metal ions ([1]; 1(a), Na^+, Ca^2+, Mg^2+, Fe^3+, Zn^2+, Mn^2+, Cu^2+ at physiological concentrations (FIG. 17E)): high selectivity
viable cells (U87MG cells [2]; 1(a) internalized for 30 minutes, Trypan blue): more than 97%
viable cells (CP-A cells [3]): more than 97%
binding constant (K) [4]: 0.133 mM⁻¹

lysozyme
K^+ efflux from bacteria over time (E. coli): K^+ efflux increased slowly over time
K^+ efflux from bacteria over time (B. subtilis): K^+ efflux was very fast, within the first 10 minutes

CC(C)NCC(O)c1ccc(O)c(O)c1 (stereo not shown) [isoproterenol]
increase of average fluorescence intensity of cells after treatment (U87MG cells [5]): 33%

CO[C@@H]1C[C@@H](C[C@H]2CC[C@H](C)[C@H]([C@@H](C)C(=O)O)O2)O[C@]2(O[C@](C)([C@H]3CC[C@@](C)([C@@H]4O[C@@H]([C@H]5O[C@@](O)(CO)[C@H](C)C[C@@H]5C)C[C@@H]4C)O3)C[C@H]2C)[C@@H]1C [nigericin]
fluorescence intensity after stabilization, below that before stimulation (U87MG cells [6]; efflux stabilized after 15 minutes): about 25%
average fluorescence increase at peak of potassium influx (U87MG cells [6]; peak after 3 minutes, 2(a) 4 μM): 370%
K^+ efflux, decrease of 1(a) fluorescence (U87MG cells [7]): not an efficient K^+ efflux stimulator
K^+ efflux, decrease of 1(a) fluorescence (CP-A cells [8]): not an efficient K^+ efflux stimulator

COCCOc1cc(/C=C/C2=C(C#N)C(=C(C#N)C#N)OC2(C)C)ccc1N1CCOc2cc(C)ccc2N2CCOCCOCCN(CCOCCOCC2)c2ccc(C)cc2OCC1 [2(a)]
fluorescence intensity increase upon addition of K^+ ([9]; K^+ 140 mM): ca. 4 fold
fluorescence intensity increase upon addition of K^+ ([9]; K^+ 1400 mM): ~50 fold
quantum yield (η) ([10]; K^+ 140 mM): 0.52%
quantum yield (η) ([10]; K^+ 1400 mM): 5.6%
quantum yield (η) ([10]; free form, no K^+): 0.11%
selectivity to K^+ against other metal ions ([1]; Na^+, Ca^2+, Mg^2+, Fe^3+, Zn^2+, Mn^2+, Cu^2+ at physiological levels, Na^+, Ca^2+, Mg^2+ also at 140 mM): high selectivity
sensitivity to pH ([1]; pH 5 to 8): not sensitive to pH in the range of 5 to 8
viable cells (U87MG cells [2]; human, 2 h): more than 97%
